Holding throughout (format): cell-based
The test system of series [1] is HeLa cells. The experiment in a line: Cellular uptake by flow cytometry. How it is done:
HeLa (90,000), MDA‐MB‐231 (120,000), and HFF‐1 (125,000) cells were seeded into a 24‐well plate. Cells were treated with the desired concentration of CF‐labeled peptide diluted in the appropriate serum‐free medium for 30 min at 37 °C and 5% CO2. Afterward, cells were washed once with PBS, detached from the plate using indicator‐free trypsin/EDTA and resuspended in indicator‐free culture medium. The cell mixture was measured on the Guava easyCyte flow cytometer (Merck) using the GRN‐B (520/30) detector.
CMA was synthesized and kindly provided by Azizi et al.^[ [33] ^] Cells were either treated with 20 μM CMA diluted in serum‐free media or 0.1% DMSO diluted in serum‐free media for 6 h at 37 °C with 5% CO2. Next, cells were washed once with serum‐free medium and 5 μM CF‐labeled peptides diluted in serum‐free medium were incubated for 30 min. Control cells were only treated with dimethylsulfoxide (DMSO) or 20 μM CMA.
For the preincubation assay, cells were either treated with 5 μM DC‐2 diluted in serum‐free medium or only serum‐free medium for 30 min at 37 °C and 5% CO2. Afterward, cells were washed once with serum‐free medium and treated with 5 μM CF‐labeled DC‐2 for 30 min at 37 °C and 5% CO2.
To block cell surface thiols, cells were incubated with either serum‐free medium or 1.2 mM 5,5′‐dithiobis‐(2‐nitrobenzoic acid) (Ellman's reagent, DTNB) diluted in serum‐free medium for 5 min. Next, untreated cells were treated with 1 μM of CF‐labeled DC‐2 or DC‐2dis diluted in serum‐free medium and DTNB‐pretreated cells with 1 μM of CF‐labeled DC‐2 or DC‐2dis and 1.2 mM DTNB in serum‐free medium for 30 min at 37 °C and 5% CO2 as described by Aubry et al.^[ [47] ^]
(A flow cytometer gives signals particle by particle.)

In series [2] the test system is HeLa cells. The experiment in a line: Co‐localization studies (confocal microscopy, PCC and MOC). Particulars: 2 h, 5 μM CF‐DC‐2, CellLight ER‐RFP, mean ± SD of ≥37 cells, n = 2. How it is done:
HeLa cells (30,000–40,000) were seeded into an 8‐well ibidi. For lysosomal and lipid droplet analysis, cells were treated for 30 min with 5 μM of CF‐labeled peptide combined with either 100 nM LysoTracker Red DND‐99 (Invitrogen) or a 1:1000 solution of distyryl Bodipy lipid droplet stain synthesized and kindly provided by Engelhardt et al.^[ [67] ^] diluted in serum‐free media under standard growth conditions. For Golgi analysis, cells were treated for 2 h with 5 μM CF‐labeled peptide under standard growth conditions. For the last 30 min of the incubation period, 1:100 BODIPY TR ceramide complexed to bovine serum albumine (BSA) (Invitrogen) was directly diluted into the well and incubated for the last 30 min together with the peptide. For ER staining, CellLight ER‐RFP, BacMam 2.0 (Invitrogen), was added to the cells and incubated overnight under standard growth conditions. The next day, the cells were treated for 2 h with 5 μM CF‐labeled peptides as described earlier. After the peptide and stain incubation, cells were washed three to four times with serum‐free medium. […] Pearson and Manders’ Coefficients were calculated using the JaCoP analysis tool.^[ [68] ^] For Golgi analysis, no PCC or MOC was determined as the unedited images contained a strong background signal.

The next series concerns mEGFP‐HRas. The experiment in a line: Fluorescence microscopy of mEGFP‐HRas localization. Particulars: HeLa mEGFP‐HRas cells, doxycycline-induced, 100 μM peptide, 6 h, n = 3 (Figure 8A). The text has this:
mEGFP‐HRas was amplified from a plasmid gifted from Karel Svoboda^[ [69] ^] (Addgene plasmid # 18662) using the primers 5′‐gcgGGTACCgccaccatggtgagcaagg‐3′ and 5′‐gcgGCGGCCGCtcaggagagcacacactt‐3′. KpnI and NotI restriction sites (capital letter) were used and the construct was cloned into the pcDNA5 FRT‐TO vector to generate an inducible T‐REx‐HeLa cell line using the Flp‐In T‐REx System (Invitrogen). The plasmid was verified by sequencing. The construct was co‐transfected together with the pOG44 vector using the FuGENE HD transfection reagent (Promega). Positive clones were selected with DMEM medium supplemented with 10% FCS, 500 μg ml^−1 penicillin/streptomycin 100 μg ml^−1 hygromycin and 10 μg ml^−1 blasticidin and verified by fluorescence microscopy and immunoblot.
A total of 35,000 HeLa mEGFP‐HRas cells were seeded into an 8‐well plate. Cells were induced with […] ml^−1 doxycycline and incubated for around 15 h under standard growth conditions. Afterward, cells were treated for 6 h with 100 μM peptide diluted in serum‐free medium. And, 10 min prior to the end of the incubation time, the Hoechst 33342 nuclear dye was added. Cells were washed with serum‐free media. Finally, complete medium was added and cells were imaged on the UltraView VoX Spinning Disk Confocal Microscope (Perkin Elmer) on a 60X oil objective at 37 °C and 5% CO2. Images were cropped and processed using Fiji.

No end group written: not given here.

Consider “GLRKRLRKFRNKKMDHHCPW-NH2 [DC‐2, CPP sC18* fused to the DHHC motif derived from ZDHHC2/3/6/7/15/16/20]”, for which the “effect of blocking cell surface thiols (DTNB) on cellular uptake” value with HeLa cells [1] (5 min 1.2 mM DTNB, then 1 μM CF‐labeled peptide with DTNB 30 min, flow cytometry, n = 3 (Figure S8C)) is given as “no significant difference”. Also, the “effect of pretreatment with unlabeled DC‐2 on peptide uptake” value in the series on HeLa cells [1] (30 min 5 μM unlabeled DC‐2, then 30 min 5 μM CF‐DC‐2, flow cytometry, n = 3 (Figure S5E)) is “no significant difference in the quantity of peptide uptake”. Also, the “cellular uptake in medium lacking L‐cystine” value with HeLa cells [1] (30 min, 5 µM CF-DC-2, flow cytometry, n = 3 (Figure S8B)) is “slightly increased”. For the same substance, in the series with HeLa cells [1] (30 min, 5 μM CF‐labeled peptides, serum-free medium, 37 °C, flow cytometry, n ≥ 3 (Figure 3D, 5C)), the “cellular uptake (in words)” value is listed as “internalized to a higher extent compared to DC‐4”. In the series on HeLa cells [2], the “Mander's overlap coefficient (MOC), ER” value came out at 0.60 ± 0.20 and the “Pearson correlation coefficient (PCC), ER” value is on record as 0.37 ± 0.10. Moreover, the HRas localization result in the series on mEGFP‐HRas is “altered HRas pattern”.

The values above are taken from article PMC12117998, “First Steps toward the Design of Peptides that Influence the Intracellular Palmitoylation Machinery” (Chembiochem, 2025).
